The record followed here is US20250059188A1, “ARYLSULPHONAMIDE COMPOUNDS” (Anaxis Pharma Pty Ltd, priority 2021, published 2025).

For orientation: Kd means the free concentration of one partner at which half of the binding sites on the other are occupied at equilibrium, for simple one-to-one binding. Higher therefore signals weaker binding. The IC50 is the concentration needed to halve the response being measured.

A value given as a limit tells only on which side of the number the result lay.

The target in one assay is human MLKL (full length) (Homo sapiens (Human), UniProt Q8NB16). Nature of the assay: KINOMEscan binding assay, human MLKL (full length). As to conditions: equilibrium dissociation constant. In a few lines:
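Binding constants were derived by fitting qPCR-quantified bead-retained kinase against compound concentration to the Hill equation, slope set at −1. Compound series were 3-fold over 11 points with 1% DMSO; most top concentrations were 30,000 nM. Kinases were T7-phage-tagged or HEK-293-produced with DNA tags.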

For assay [1], the system named is Immortalised Mouse Dermal Fibroblasts (MDFs). Nature of the assay: Inhibition of TSI induced necroptosis in mouse dermal fibroblasts (CellTitre-Glo). The settings on record: Mus musculus, Fibroblast, 3 h, MDF cells, TSI cocktail (TNF, Smac mimetic, IDN-6556), read-out: Inhibition of TSI-induced necroptosis (IC50 cell-based assay) in MDF. The procedure, abridged:
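Immortalised MDFs (2200 cells/well, DMEM + 7.4% FBS) pretreated 30 min with compound (36 μM top, 1:3, 10 points, 0.3% DMSO), then 3 h with TNF 100 ng/ml, Smac mimetic 500 nM and IDN-6556 10 μM at 37 °C. Viability by CellTiter-Glo luminescence; IC50 from 4-parameter logistic fit.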

human MLKL (full length), sequence (Q8NB16 whole entry): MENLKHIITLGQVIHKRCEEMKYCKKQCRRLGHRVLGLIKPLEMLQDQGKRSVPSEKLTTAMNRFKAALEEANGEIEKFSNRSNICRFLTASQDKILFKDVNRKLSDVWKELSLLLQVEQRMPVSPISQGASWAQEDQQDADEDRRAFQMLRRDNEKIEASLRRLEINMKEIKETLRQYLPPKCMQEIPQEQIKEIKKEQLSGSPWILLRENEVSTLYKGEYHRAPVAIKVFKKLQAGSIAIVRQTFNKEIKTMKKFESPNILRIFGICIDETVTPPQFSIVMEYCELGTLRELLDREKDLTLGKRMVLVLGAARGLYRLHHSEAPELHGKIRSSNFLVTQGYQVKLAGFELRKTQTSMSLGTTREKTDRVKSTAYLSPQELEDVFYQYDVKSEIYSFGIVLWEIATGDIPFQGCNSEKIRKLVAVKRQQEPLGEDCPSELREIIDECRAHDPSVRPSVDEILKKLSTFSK

For `C[C@H](Oc1cc(-c2nn(C)c3c(-c4cnn(C5CCN(C)C(C)(C)C5)c4)cnc(N)c23)ccc1NS(=O)(=O)C(F)F)c1ccc(F)cc1` (single isomer, unassigned) [Compound 113], the Kd on human MLKL (full length) is less than 1 nM. For the same compound, the IC50 in assay [1] is 100 to 1000 nM.
Regarding `C[C@H](Oc1cc(-c2nn(C)c3c(-c4cnn(C5CCN(C)C(C)(C)C5)c4)cnc(N)c23)ccc1NS(=O)(=O)C(F)F)c1ccc(F)cc1` (single isomer, unassigned) [Compound 154, N-(4-(4-amino-1-methyl-7-(1-((R*)-1,2,2-trimethylpiperidin-4-yl)-1H-pyrazol-4-yl)-1H-pyrazolo[4,3-c]pyridin-3-yl)-2-((S)-1-(4-fluorophenyl)ethoxy)phenyl)-1,1-difluoromethanesulfonamide], the equilibrium dissociation constant (Kd) at human MLKL (full length) was less than 1 nM. In addition, the IC50 in assay [1] was less than 100 nM.
The matching figures for `C[C@H](Oc1cc(-c2nn(C)c3c(-c4cnn(C5CCN(C)C6(CC6)C5)c4)cnc(N)c23)ccc1NS(=O)(=O)C(F)F)c1ccc(F)cc1` (single isomer, unassigned) [Compound 170, N-(4-(4-amino-1-methyl-7-(1-((S*)-4-methyl-4-azaspiro[2.5]octan-7-yl)-1H-pyrazol-4-yl)-1H-pyrazolo[4,3-c]pyridin-3-yl)-2-((S)-1-(4-fluorophenyl)ethoxy)phenyl)-1,1-difluoromethanesulfonamide]: 1 to 100 nM and less than 100 nM.
`Cn1nc(-c2ccc(NS(=O)(=O)C(F)F)c(OCc3ccc(F)cc3)c2)c2c(N)ncc(-c3cnn(C4CCOCC4)c3)c21` [Compound 13, N-(4-(4-amino-1-methyl-7-(1-(tetrahydro-2H-pyran-4-yl)-1H-pyrazol-4-yl)-1H-pyrazolo[4,3-c]pyridin-3-yl)-2-((4-fluorobenzyl)oxy)phenyl)-1,1-difluoromethanesulfonamide]: the Kd on human MLKL (full length) is less than 1 nM. The IC50 in assay [1] fell in the range of 1000 to 10000 nM.
The matching figures for `C[C@H](Oc1cc(-c2nn(C)c3c(-c4cnn(C5CCOCC5)c4)cnc(N)c23)ccc1NS(=O)(=O)C(F)F)c1ccc(F)cc1` [Compound 19, (S)-N-(4-(4-amino-1-methyl-7-(1-(tetrahydro-2H-pyran-4-yl)-1H-pyrazol-4-yl)-1H-pyrazolo[4,3-c]pyridin-3-yl)-2-(1-(4-fluorophenyl)ethoxy)phenyl)-1,1-difluoromethanesulfonamide]: less than 1 nM and 100 to 1000 nM.
`COCCn1cc(-c2cnc(N)c3c(-c4ccc(NS(=O)(=O)C(F)F)c(O[C@@H](C)c5ccc(F)cc5)c4)nn(C)c23)cn1` [Compound 29, (S)-N-(4-(4-amino-7-(1-(2-methoxyethyl)-1H-pyrazol-4-yl)-1-methyl-1H-pyrazolo[4,3-c]pyridin-3-yl)-2-(1-(4-fluorophenyl)ethoxy)phenyl)-1,1-difluoromethanesulfonamide]: the Kd at human MLKL (full length) was less than 1 nM. Also, the IC50 in assay [1] was 1000 to 10000 nM.
The matching figures for `C[C@H](Oc1cc(-c2nn(C)c3c(-c4cnn(C5CCCC5)c4)cnc(N)c23)ccc1NS(=O)(=O)C(F)F)c1ccc(F)cc1` [Compound 30, (S)-N-(4-(4-amino-7-(1-cyclopentyl-1H-pyrazol-4-yl)-1-methyl-1H-pyrazolo[4,3-c]pyridin-3-yl)-2-(1-(4-fluorophenyl)ethoxy)phenyl)-1,1-difluoromethanesulfonamide]: 1 to 100 nM and 1000 to 10000 nM.
The matching figures for `C[C@H](Oc1cc(-c2nn(C)c3c(-c4cnn(C5CCN(C)CC5)c4)cnc(N)c23)ccc1NS(=O)(=O)C(F)F)c1ccc(F)cc1` [Compound 46, (S)-N-(4-(4-amino-1-methyl-7-(1-(1-methylpiperidin-4-yl)-1H-pyrazol-4-yl)-1H-pyrazolo[4,3-c]pyridin-3-yl)-2-(1-(4-fluorophenyl)ethoxy)phenyl)-1,1-difluoromethanesulfonamide]: 1 to 100 nM and 100 to 1000 nM.
The matching figures for `C[C@H](Oc1cc(-c2nn(C)c3c(C#CC4CCNCC4)cnc(N)c23)ccc1NS(=O)(=O)C(F)F)c1ccc(F)cc1` [Compound 79, (S)—N-(4-(4-amino-1-methyl-7-(piperidin-4-ylethynyl)-1H-pyrazolo[4,3-c]pyridin-3-yl)-2-(1-(4-fluorophenyl)ethoxy)phenyl)-1,1-difluoromethanesulfonamide]: less than 1 nM and 1000 to 10000 nM.
In turn, `C[C@H](Oc1cc(-c2nn(C)c3c(C#CC4CCN(C)CC4)cnc(N)c23)ccc1NS(=O)(=O)C(F)F)c1ccc(F)cc1` [Compound 80, (S)—N-(4-(4-amino-1-methyl-7-((1-methylpiperidin-4-yl)ethynyl)-1H-pyrazolo[4,3-c]pyridin-3-yl)-2-(1-(4-fluorophenyl)ethoxy)phenyl)-1,1-difluoromethanesulfonamide] showed a Kd at human MLKL (full length) of less than 1 nM. Also, the IC50 in assay [1] fell in the range of 100 to 1000 nM.
The matching figures for `CC(C)N(C)C(=O)C(C)n1cc(-c2cnc(N)c3c(-c4ccc(NS(=O)(=O)C(F)F)c(O[C@@H](C)c5ccc(F)cc5)c4)nn(C)c23)cn1` (stereo partly drawn) [Compound 81, 2-(4-(4-amino-3-(4-((difluoromethyl)sulfonamido)-3-((S)-1-(4-fluorophenyl)ethoxy)phenyl)-1-methyl-1H-pyrazolo[4,3-c]pyridin-7-yl)-1H-pyrazol-1-yl)-N-isopropyl-N-methylpropanamide]: less than 1 nM and 1000 to 10000 nM.
The matching figures for `C[C@H](Oc1cc(-c2nn(C)c3c(-c4cnn(C(C)(C)CO)c4)cnc(N)c23)ccc1NS(=O)(=O)C(F)F)c1ccc(F)cc1` [Compound 97, (S)-N-(4-(4-amino-7-(1-(1-hydroxy-2-methylpropan-2-yl)-1H-pyrazol-4-yl)-1-methyl-1H-pyrazolo[4,3-c]pyridin-3-yl)-2-(1-(4-fluorophenyl)ethoxy)phenyl)-1,1-difluoromethanesulfonamide]: less than 1 nM and 1000 to 10000 nM.
The matching figures for `C[C@H](Oc1cc(-c2nn(C)c3c(-c4cnn(C5(CC#N)COC5)c4)cnc(N)c23)ccc1NS(=O)(=O)C(F)F)c1ccc(F)cc1` [Compound 98, (S)-N-(4-(4-amino-7-(1-(3-(cyanomethyl)oxetan-3-yl)-1H-pyrazol-4-yl)-1-methyl-1H-pyrazolo[4,3-c]pyridin-3-yl)-2-(1-(4-fluorophenyl)ethoxy)phenyl)-1,1-difluoromethanesulfonamide]: less than 1 nM and 1000 to 10000 nM.
As to `C[C@H](Oc1cc(-c2nn(C)c3c(-c4cnn(C5CC6(C5)CN(C)C6)c4)cnc(N)c23)ccc1NS(=O)(=O)C(F)F)c1ccc(F)cc1` [Compound 99, (S)-N-(4-(4-amino-1-methyl-7-(1-(2-methyl-2-azaspiro[3.3]heptan-6-yl)-1H-pyrazol-4-yl)-1H-pyrazolo[4,3-c]pyridin-3-yl)-2-(1-(4-fluorophenyl)ethoxy)phenyl)-1,1-difluoromethanesulfonamide], at human MLKL (full length), the Kd is less than 1 nM. For the same compound, in assay [1], the IC50 lay within 1000 to 10000 nM.
`[2H]C([2H])([2H])N1CCC(n2cc(-c3cnc(N)c4c(-c5ccc(NS(=O)(=O)C(F)F)c(O[C@@H](C)c6ccc(F)cc6)c5)nn(C)c34)cn2)CC1` [Compound 103] had a Kd on human MLKL (full length) of less than 1 nM. In addition, the IC50 in assay [1] was 1000 to 10000 nM.
